The values that follow come from US12378224B2 (Dong-A Socio Holdings Co., Ltd., priority 2016, dated 2025).

The assay addresses human c-MER catalytic domain (Homo sapiens (Human), UniProt Q12866). In words: TR-FRET Kinase Activity Biochemical Assay (LanthaScreen). As to conditions: 10 uM ATP, 1 hour, kinase not given. The source says:
For the SAR (structure-activity relationship) and compound screening, LanthaScreen™ TR-FRET (Time-Resolved fluorescence energy transfer) assay was employed using the phospho-tyrosine specific Terbium (Tb)-labelded antibody with a fluorescein labeled poly-GT (glutamate-tyrosine) as a substrate. Upon excitation at 340 nm by UV, the energy from Tb donor of the antibody is transferred to the fluorescein of the phosphorylated poly GT substrate, and fluorescein emits light at 520 nm. The ratio between the intensity of […] was used to quantify the level of kinase activity. The recombinant proteins of human c-MER and AXL catalytic domains, Fluorescein-labeled poly-GT substrate, Tb-labeled anti-phosphorylated tyrosine antibodies, the kinase assay buffer, and 0.5M EDTA solution were purchased (Life technologies, USA). The TR-FRET assays were carried out in the white low volume 384-well plate (Corning, USA). […] 10 mM EDTA was added to terminate the enzyme reaction, and the level of phosphorylation of poly-GT substrate was determined following 30 min incubation with 2 nM Tb-labeled antibody. The fluorescence intensity was measured with Envision™ plate reader (PerkinElmer, USA).
On the technique in general: TR-FRET usually uses a lanthanide donor and a delayed reading to cut background.

Structures are written as SMILES.

human c-MER catalytic domain, sequence (Q12866 587-858): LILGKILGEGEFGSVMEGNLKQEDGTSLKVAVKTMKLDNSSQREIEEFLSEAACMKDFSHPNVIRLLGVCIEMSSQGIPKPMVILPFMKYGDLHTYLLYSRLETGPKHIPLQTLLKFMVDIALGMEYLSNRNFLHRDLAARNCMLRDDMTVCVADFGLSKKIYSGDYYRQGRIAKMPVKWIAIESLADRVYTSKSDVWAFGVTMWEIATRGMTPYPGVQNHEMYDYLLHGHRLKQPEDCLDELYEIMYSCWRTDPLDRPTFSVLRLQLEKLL

With `Cn1cc(-c2cnc(N)c(C(=O)N[C@@H]3CCN(C(=O)Nc4cccc(Br)c4)C3)c2)cn1` [Example 24, (R)-2-amino-N-(1-((3-bromophenyl)carbamoyl)pyrrolidin-3-yl)-5-(1-methyl-1H-pyrazol-4-yl)nicotinamide], the IC50 (usually the point on the concentration scale where inhibition reaches its midpoint) is 100 to 1000 nM.

Take `COc1cc(NC(=O)N2CC[C@@H](NC(=O)c3cc(-c4cnn(C)c4)cnc3N)C2)cc(OC)c1OC` [Example 35, (R)-2-amino-5-(1-methyl-1H-pyrazol-4-yl)-N-(1-((3,4,5-trimethoxyphenyl)carbamoyl)pyrrolidin-3-yl)nicotinamide]: the concentration for half-maximal inhibition (IC50) fell in the range of 100 to 1000 nM.

On to `CN1CCN(Cc2ccc(-c3cnc(N)c(C(=O)N[C@@H]4CCN(C(=O)Nc5cccc(-c6ccccc6)c5)C4)c3)cc2)CC1` [Example 37, (R)—N-(1-([1,1′-biphenyl]-3-ylcarbamoyl)pyrrolidin-3-yl)-2-amino-5-(4-((4-methylpiperazin-1-yl)methyl)phenyl)nicotinamide], for which the half-maximal inhibitory concentration (IC50) lay in the range of 10 to 100 nM.

Turning to `Nc1ncc(-c2ccc(CN3CCC(O)CC3)cc2)cc1C(=O)N[C@@H]1CCN(C(=O)Nc2cccc(-c3ccccc3)c2)C1` [Example 39, (R)—N-(1-([1,1′-biphenyl]-3-ylcarbamoyl)pyrrolidin-3-yl)-2-amino-5-(4-((4-hydroxypiperidin-1-yl)methyl)phenyl)nicotinamide], the 50% inhibitory concentration (IC50) was in the range of 10 to 100 nM.

`Cn1cc(-c2cnc(N)c(C(=O)N[C@@H]3CCN(C(=S)Nc4ccc(N5CCOCC5)cc4)C3)c2)cn1` [Example 49, (R)-2-amino-5-(1-methyl-1H-pyrazol-4-yl)-N-(1-((4-morpholinophenyl)carbamothioyl)pyrrolidin-3-yl)nicotinamide] showed an IC50 of 100 to 1000 nM.

The compound `Cn1cc(-c2cnc(N)c(C(=O)N[C@@H]3CCN(C(=O)Oc4ccccc4N)C3)c2)cn1` [Example 70, 2-aminophenyl (R)-3-(2-amino-5-(1-methyl-1H-pyrazol-4-yl)nicotinamido)pyrrolidine-1-carboxylate] registered an IC50 of more than 1000 nM.

In the case of `CC1CC(C)CC(OC(=O)N2CC[C@@H](NC(=O)c3cc(-c4cnn(C)c4)cnc3N)C2)C1` (stereo partly drawn) [Example 79, 3,5-dimethylcyclohexyl (3R)-3-(2-amino-5-(1-methyl-1H-pyrazol-4-yl)nicotinamido)pyrrolidine-1-carboxylate], the IC50 is more than 1000 nM.

`CN1CCN(Cc2ccc(-c3cnc(N)c(C(=O)N[C@@H]4CCN(C(=O)Oc5cccc(-c6ccccc6)c5)C4)c3)cc2)CC1` [Example 82, [1,1′-biphenyl]-3-yl (R)-3-(2-amino-5-(4-((4-methylpiperazin-1-yl)methyl)phenyl)nicotinamido)pyrrolidine-1-carboxylate] registered an IC50 of 10 to 100 nM.

`Cn1cc(-c2cnc(N)c(C(=O)N[C@@H]3CCN(C(=O)Oc4ccc5ccc(O)cc5c4)C3)c2)cn1` [Example 95, 7-hydroxynaphthalen-2-yl (R)-3-(2-amino-5-(1-methyl-1H-pyrazol-4-yl)nicotinamido)pyrrolidine-1-carboxylate] yielded an IC50 of 100 to 1000 nM.

In turn, `C[C@H]1CCCC[C@H]1OC(=O)N1CC[C@@H](NC(=O)c2cc(-c3cnn(C)c3)cnc2N)C1` [Example 108, (1R,2S)-2-methylcyclohexyl (R)-3-(2-amino-5-(1-methyl-1H-pyrazol-4-yl)nicotinamido)pyrrolidine-1-carboxylate] had a concentration for half-maximal inhibition (IC50) of more than 1000 nM.

Take `CN1CCN(Cc2ccc(Oc3ccc(OC(=O)N4CC[C@@H](NC(=O)c5cc(-c6cnn(C)c6)cnc5N)C4)cc3)cc2)CC1` [Example 113, 4-(4-((4-methylpiperazin-1-yl)methyl)phenoxy)phenyl (R)-3-(2-amino-5-(1-methyl-1H-pyrazol-4-yl)nicotinamido)pyrrolidine-1-carboxylate]: the IC50 is 100 to 1000 nM.

`Cn1cc(-c2cnc(N)c(C(=O)N[C@@H]3CCN(C(=O)Oc4cccc(-c5ccccc5)c4)C3)c2)cn1` [Example 117, [1,1′-biphenyl]-3-yl (R)-3-(2-amino-5-(1-methyl-1H-pyrazol-4-yl)nicotinamido)pyrrolidine-1-carboxylate] had an IC50 of 10 to 100 nM.
